Here are results for 13 compounds from patent US6504005B1, “Long-acting drugs and pharmaceutical compositions comprising them” (Yeda Research and Development Co. Ltd., priority 1996, dated 2003).

Values joined by “and” are separate entries in the source; they are usually repeats but may differ in a detail not shown here. Equal values may be shown once. Read-outs that look alike come from different tables or passages of the source.

For one data set, the system named is Staphylococcus aureus. The note with it: relative to cephalexin control. On the procedure:
At the indicated time points, aliquots were withdrawn and analyzed for their potency to arrest growth of Staphylococcus aureus. Bacterial growth was then evaluated by increased turbidity measured spectroscopically at 700 nm.

Another data set deals with normal rats. Description: Single intraperitoneal administration to normal rats, blood glucose levels. Type of data set: in vivo. Particulars: single i.p. injection, 3 mg/rat.
The next data set deals with intact rat adipocytes. The format is cell-based. The note with it: for Activity following incubation at pH 8.5, 37° C. (%), 9 hrs: 9 hrs at pH 8.5, 37° C.; for Activity following incubation at pH 8.5, 37° C. (%), 20 hrs: 20 hrs at pH 8.5, 37° C.; for Activity following incubation at pH 8.5, 37° C. (%), 45 hrs: 45 hrs at pH 8.5, 37° C. On the procedure: (iii) Lipogenesis (Incorporation of Labeled Glucose into the Lipids of Intact Adipocytes) Rat adipocytes were prepared essentially by the method of Rodbell, 1964. The fat pads of male Wistar rats were cut into small pieces with scissors and suspended in 3 ml of KRB buffer containing NaCl, 110 mM; NaHCO3, 25 mM; Kcl, 5 mM; […] CaCl2, 1.3 mM; […] Five milliliters of buffer was then added, and the cells were passed through a mesh screen. The cells were then allowed to stand for several minutes in a 15 ml plastic test tube at room temperature, floating, and the buffer underneath was removed. This procedure (suspension, floating, and removal of buffer underneath) was repeated three times. […] Lipogenesis was terminated by adding toluene-based scintillation fluid (1.0 ml per vial) and the radioactivity in extracted lipids was counted (Moody et al., 1974).

Data set [1] can be described thus: Conversion of Fmoc-hGH to native hGH upon incubation (analytical HPLC). Type of data set: physicochemical. Particulars: pH 8.5, 37° C. On the procedure:
Conversion of Fmoc-hGH to native hGH was evaluated by the increase in peak area corresponding to native hGH.

The test system of a further data set is hGH receptor. Description: Displacement of iodinated hGH (receptor binding assay). On the procedure:
Incubation of Fmoc-hGH at pH 8.5 (37° C.) for about 6 days or at pH 10.5 (37° C.) for four days yielded fully active, native hGH, as judged by HPLC analysis and by receptor binding assays.

Data set [2] can be described thus: Solubility and appearance in aqueous buffer (pH 7.4).
The target in data set [3] is insulin receptor tyrosine kinase (Rattus norvegicus, UniProt P15127). Description: Insulin receptor tyrosine kinase activity, [poly(Glu4Tyr)] phosphorylating assay (cell-free). The note with it: for Biological potency following incubation (2 days, 37° C., pH 8.5): after 2 days; for Biological potency (%): of native insulin potency, before incubation, [poly(Glu4Tyr)] phosphorylating assay.
Method: Briefly, the liver was homogenized in the presence of proteinase inhibitors, solubilized with 1% Triton X-100, and centrifuged. The supernatant was allowed to pass through a wheat-germ agglutinin (WGA)-agarose column (Sigma). Adsorbed insulin receptor portion was eluted with 0.3M N-acetyl-D-glucose amine in 50 mM HEPES buffer, pH 7.4, containing 0.1% Triton X-100, 10% glycerol, and 0.15M NaCl.
(iv) Receptor Tyrosine Kinase Activity Measurement
In this assay insulin activates its own receptor to phosphorylate a random copolymer containing L-glutamic acid and L-tyrosine at 4:1 molar ratio [Poly(Glu4Tyr)]SEQ ID NO:1. The standard enzyme assay mixture (final volume 60 μl in 50 mM Hepes, pH 7.4-0.1% Triton X-100) contained WGA purified insulin receptor (5μg protein), 20 mM MgCl2, 2 mM MnCl2, 100 μM ATP and varying concentrations (from 1 ng/ml to 10 mg/ml) of insulin or insulin derivative. Following a 30 min preincubation at 22° C., the reaction was initiated by adding Poly(Glu4Tyr) SEQ ID NO:1 (final concentration 0.7 mg/ml), it proceeded for 20 min at 22° C. and was terminated by adding EDTA (20 mM). Phosphotyrosine content in PolyGlu4Tyr was quantitated by a radio-immunoassay procedure using specific monoclonal antibodies to phosphotyrosine (final dilution 1: 100,000) and ^125I-BSA-phosphotyrosine conjugate.

Assay in data set [4]: not given
This is another data set of the same source.

For data set [5] the following is noted: cited from earlier work.
The format of data set [6] is physicochemical. The method, then:
(i.e. at physiological pH and body temperature). At the indicated time points aliquots were withdrawn for determining the biological potency relative to native insulin. Biological activities were evaluated by Insulin receptor tyrosine kinase activation (a cell free assay as described in Biological Procedures above, section (iv)) and by stimulation of lipogenesis in intact rat adipocytes as described in Biological Procedures, […].

The subject of another data set is STZ-diabetic rats. Description: Single subcutaneous administration to STZ-diabetic rats (blood glucose, daily weight gain). Particulars: STZ rats.
Another data set deals with E. coli. Type of data set: cell-based. The note with it: for IC50: read-out: Concentration inhibiting 50% of bacterial growth; for Antimicrobial potency (%): relative to PMXB control. On the procedure:
At the indicated time points aliquots were withdrawn and analyzed for their potencies to arrest growth of E. coli, and bacterial growth was then evaluated by measuring turbidity at 700 nm.

insulin receptor tyrosine kinase, sequence (P15127 27-759 limits assumed): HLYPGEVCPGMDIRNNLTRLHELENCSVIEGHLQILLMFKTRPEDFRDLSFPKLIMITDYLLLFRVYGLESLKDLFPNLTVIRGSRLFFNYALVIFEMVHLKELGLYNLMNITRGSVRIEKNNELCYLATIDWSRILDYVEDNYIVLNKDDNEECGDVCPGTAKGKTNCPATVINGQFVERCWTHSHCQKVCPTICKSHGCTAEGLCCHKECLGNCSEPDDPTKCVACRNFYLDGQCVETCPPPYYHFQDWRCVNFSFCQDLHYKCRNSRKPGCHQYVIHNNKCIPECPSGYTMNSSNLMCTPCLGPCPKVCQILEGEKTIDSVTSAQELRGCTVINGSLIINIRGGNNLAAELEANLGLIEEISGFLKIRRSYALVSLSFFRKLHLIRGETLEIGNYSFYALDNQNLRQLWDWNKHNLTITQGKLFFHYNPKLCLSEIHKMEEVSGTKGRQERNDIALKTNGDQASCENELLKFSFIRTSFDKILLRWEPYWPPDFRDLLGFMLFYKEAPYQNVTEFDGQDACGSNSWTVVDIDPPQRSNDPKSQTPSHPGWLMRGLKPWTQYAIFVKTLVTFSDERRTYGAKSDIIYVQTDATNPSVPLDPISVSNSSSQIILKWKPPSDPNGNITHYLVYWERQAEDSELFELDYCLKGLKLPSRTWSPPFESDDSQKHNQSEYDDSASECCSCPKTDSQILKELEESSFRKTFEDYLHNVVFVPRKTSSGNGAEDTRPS
insulin receptor tyrosine kinase, sequence (P15127 764-1383 partner limits assumed): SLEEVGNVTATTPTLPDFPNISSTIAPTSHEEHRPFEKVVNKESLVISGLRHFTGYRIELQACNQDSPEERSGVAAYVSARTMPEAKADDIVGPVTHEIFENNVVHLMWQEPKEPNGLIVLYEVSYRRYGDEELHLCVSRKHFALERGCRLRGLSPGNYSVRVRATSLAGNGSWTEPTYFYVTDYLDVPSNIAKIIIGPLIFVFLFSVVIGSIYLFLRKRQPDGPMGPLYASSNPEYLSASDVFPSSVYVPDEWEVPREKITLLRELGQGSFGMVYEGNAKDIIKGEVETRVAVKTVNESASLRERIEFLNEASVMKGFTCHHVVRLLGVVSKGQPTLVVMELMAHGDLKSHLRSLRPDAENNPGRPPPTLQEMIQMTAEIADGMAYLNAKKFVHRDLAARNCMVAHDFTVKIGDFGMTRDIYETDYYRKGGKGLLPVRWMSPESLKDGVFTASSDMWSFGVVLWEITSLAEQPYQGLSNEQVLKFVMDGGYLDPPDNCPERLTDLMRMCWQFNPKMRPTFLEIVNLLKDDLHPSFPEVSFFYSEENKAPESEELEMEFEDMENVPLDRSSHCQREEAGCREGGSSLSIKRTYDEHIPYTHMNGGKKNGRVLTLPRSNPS
Method for STZ-diabetic rats: Diabetes was induced by a single intravenous injection of a freshly prepared solution of streptozotocin (55 mg/kg body weight) in 0.1M citrate buffer (pH 4.5) according to Meyerovitch et al., 1987.
Blood glucose levels and daily weight gains were followed over a period of seven days.
Group C (n=5) received the vehicle only (2.0 ml of 20% DMSO). Blood glucose levels were determined daily.
Method for normal rats: This assay reflects the post-subcutaneous long-acting feature of insulin (or insulin derivatives) within the circulation. Normal rats received a single intraperitoneal injection of native insulin, NPH-insulin and (Fmoc)2-insulin (3 mg/rat), and their blood glucose levels were monitored over a period of three days.
Blood glucose levels were followed for two days.

As to `CC1=C(C(=O)O)N2C(=O)[C@@H](NC(=O)[C@H](N)c3ccccc3)[C@H]2SC1` [native cephalexin, 7-(D-α-aminophenylacetamido)desacetoxycephalosporanic acid, reference compound], the “Antimicrobial potency (%)” value is listed as 100% in the data set with Staphylococcus aureus (after 1 day at pH 7.4, 37° C.); 100% in the data set with Staphylococcus aureus (after 3 days at pH 7.4, 37° C.); 100% in the data set with Staphylococcus aureus (after 6 days at pH 7.4, 37° C.); 100% with Staphylococcus aureus (no incubation).
Consider “(Sulfmoc)2-insulin: insulin carrying two (2-sulfo)Fmoc groups on amino groups, water soluble”, for which, in the data set with normal rats, the “Period of hypoglycemia / reduced blood glucose” value amounted to 24 h and the “Recovery from hypoglycemia, t½” value came to 14 h. For the same compound, the “Biologically active (%)” value in the data set with intact rat adipocytes (before incubation, assay not given) came to 0.5%. The “t½ of return to fully-active native insulin (increase in biological potency)” value in the data set with intact rat adipocytes (pH 8.5) is listed as 4-6 hours. For the same compound, the “Time to full reversion / hydrolysis to the native hormone, pH 7.4” value (37° C., pH 7.4) came to 10 days. In addition, the “t½ of reversion, pH 7.4” value (buffer, pH 7.4) is given as 6 days. Further, the “t½ of reversion, pH 8.5” value (buffer, pH 8.5) is 12-15 hours. Further, the “Increase in rate of hydrolysis versus Fmoc moiety” value (sulfonic acid group at position 2) was 2-3 fold.
In the case of “Fmoc-hGH: human growth hormone modified with Fmoc-OSu”, the “Conversion to hGH (%)” value came to 23% in data set [1] (1 day), 62% in data set [1] (2 days) and 100% in data set [1] (6 days). Further, the “Incubation time yielding fully active, native hGH, pH 8.5” value in data set [1] is on record as “about 6 days”. Further, the “Ability to displace iodinated hormone (%)” value with hGH receptor (after 1 day, pH 10.5, 37° C.) turned out to be 25%; in the data set with hGH receptor (after 4 days, pH 10.5, 37° C.), 100%; in the data set on hGH receptor (no treatment), 15%. In addition, in the data set on hGH receptor (pH 10.5, 37° C.), the “Incubation time yielding fully active, native hGH, pH 10.5” value was “four days”.
In the case of Gly^A1, Lys^B29-N-(Fmoc)2-insulin, in the data set on intact rat adipocytes, the “Activity following incubation at pH 8.5, 37° C. (%), 9 hrs” value was determined as 10%; the “Activity following incubation at pH 8.5, 37° C. (%), 20 hrs” value is 20%; the “Activity following incubation at pH 8.5, 37° C. (%), 45 hrs” value was found to be 97%. Moreover, the “Appearance in aqueous buffer (pH 7.4)” value in [2] is on record as “cloudy”. In addition, in [3], the “Biological potency following incubation (2 days, 37° C., pH 8.5)” value (shortened to “Biological potency following incubation”) stood at 93 and the “Biological potency (%)” value is given as 2 ± 1%. In addition, in [4], the “Solubility in aqueous buffer (pH 7.4, mg/ml)” value (shortened to “Solubility in aqueous buffer”) is “˜2 mg/ml”.
Take Gly^A1, Phe^B1-N-(Fmoc)2-insulin: in the data set with intact rat adipocytes, the “Activity following incubation at pH 8.5, 37° C. (%), 9 hrs” value was found to be 18%; the “Activity following incubation at pH 8.5, 37° C. (%), 20 hrs” value worked out at 40%; the “Activity following incubation at pH 8.5, 37° C. (%), 45 hrs” value was 100%. The “Appearance in aqueous buffer (pH 7.4)” value in data set [2] was “cloudy”. Besides, in [3], the “Biological potency following incubation” value stood at 97 and the “Biological potency (%)” value is 3 ± 1%. The “Solubility in aqueous buffer” value in data set [4] was “˜2 mg/ml”.
Regarding “Gly^A1-N-(Fmoc)1-insulin [Gly^A1-N-Fmoc-insulin]”, in the data set with intact rat adipocytes, the “Activity following incubation at pH 8.5, 37° C. (%), 9 hrs” value is listed as 50% and the “Activity following incubation at pH 8.5, 37° C. (%), 20 hrs” value turned out to be 100%. Also, the “Appearance in aqueous buffer (pH 7.4)” value in [2] is on record as “nearly clear”. Also, the “Biological potency (%)” value in data set [3] was 40 ± 2%. Further, in data set [4], the “Solubility in aqueous buffer” value was “˜3 mg/ml”.
In the case of “Insulin lispro: human insulin analog with the sequence at B28 and B29 reversed”, the “Potency versus human insulin” value in data set [5] (in vivo) was “equipotent to human insulin”. Moreover, the “Absorption from subcutaneous injection sites” value in data set [5] (versus human insulin) is on record as “absorbed more quickly”.
Lys^B29-N-(Fmoc)1-insulin: the “Appearance in aqueous buffer (pH 7.4)” value in data set [2] is “nearly clear”. The “t½ of activation (half maximal activation)” value in data set [6] (buffer, pH 7.4) turned out to be 120 h. In data set [3], the “Biological potency following incubation” value was 94 and the “Biological potency (%)” value turned out to be 78 ± 4%. The “Solubility in aqueous buffer” value in [4] is reported as “˜3 mg/ml”.
Phe^B1, Lys^B29-N-(Fmoc)2-insulin: in the data set on normal rats, the “Period of hypoglycemia / reduced blood glucose” value is listed as “about 48 hours” and the “Recovery from hypoglycemia, t½” value worked out at 26 h. The Period of normoglycemia with STZ-diabetic rats (single s.c. 3 mg/rat) is recorded as 4 days. Moreover, the “Daily weight gain gram/rat (over the first three days)” value with STZ-diabetic rats (single s.c. 3 mg/rat, first three days) is on record as 11.5 ± 1.3 gram/rat. The “Effectiveness in lowering blood glucose levels” value in the data set with STZ-diabetic rats (single s.c. administration) is given as “as effective as the commercially available (insoluble) long-acting preparation”. Moreover, in the data set with intact rat adipocytes, the “Activity following incubation at pH 8.5, 37° C. (%), 9 hrs” value came to 10%; the “Activity following incubation at pH 8.5, 37° C. (%), 20 hrs” value was 20%; the “Activity following incubation at pH 8.5, 37° C. (%), 45 hrs” value is 98%. In addition, the “Appearance in aqueous buffer (pH 7.4)” value in [2] is listed as “cloudy”. In [6] (pH 7.4, 37° C.), the “Lag period of activation” value was “not seen” and the “Start of conversion to the native hormone after incubation” value is given as “starts shortly (within hours) after incubation”. Besides, in data set [3] (Lys^B29-N-(Fmoc)2 insulin), the “Biological potency (%)” value is given as 9%. Also, in data set [3] (listed as N-(Fmoc)2-insulin Phe^B1, Lys^B29), the “Biological potency (%)” value is listed as 9 ± 2%. For the same compound, in [4], the “Solubility in aqueous buffer” value was “˜2 mg/ml”.
Phe^B1-N-(Fmoc)1-insulin: the “Appearance in aqueous buffer (pH 7.4)” value in data set [2] is on record as “nearly clear”. Moreover, the “Biological potency (%)” value in data set [3] came out at 76 ± 4%. The “Solubility in aqueous buffer” value in data set [4] was “˜3 mg/ml”.
For “Polymyxin-B [native PMXB, reference compound]”, the IC50 was 55 nM in the data set with E. coli (3 d, 37° C., pH 7.4); 100 nM with E. coli (3 d, 37° C., pH 8.5); 228 nM with E. coli (6 d, 37° C., pH 7.4); 200 nM in the data set with E. coli (6 d, 37° C., pH 8.5); 50 nM in the data set on E. coli (no treatment). In addition, the “Antimicrobial potency (%)” value with E. coli (3 d, 37° C., pH 7.4) was 100%; with E. coli (3 d, 37° C., pH 8.5), 100%; with E. coli (6 d, 37° C., pH 7.4) it was 100%; in the data set with E. coli (6 d, 37° C., pH 8.5), 100%; with E. coli (no treatment) it was 100%.
Turning to “di-9-(fluorenylmethoxycarbonyl)polymyxin B [(Fmoc)2-PMBX]”, the IC50 in the data set with E. coli (3 d, 37° C., pH 7.4) is 227 nM and 350 nM; in the data set on E. coli (3 d, 37° C., pH 8.5), 125 nM; in the data set with E. coli (6 d, 37° C., pH 8.5) it was 200 nM; in the data set on E. coli (no treatment), 5000 nM. In addition, the “Antimicrobial potency (%)” value in the data set with E. coli (3 d, 37° C., pH 8.5) was 80%; with E. coli (6 d, 37° C., pH 8.5) it was 100%; in the data set on E. coli (no treatment), around 1%. Besides, the “t½ of hydrolysis back to active PMXB, pH 7.4” value in the data set with E. coli (buffer, pH 7.4) is around 1 days. The “t½ of hydrolysis back to active PMXB, pH 8.5” value with E. coli (buffer, pH 8.5) is on record as around 3 days.
“hGH: native human growth hormone (Biotechnology General)”: the “Ability to displace iodinated hormone (%)” value in the data set with hGH receptor (no treatment) came out at 100%. In addition, in the data set on hGH receptor (pH 10.5, 37° C., 4 days), the “Stability under the conditions applied to Fmoc-hGH” value is recorded as “^(1)Displacement of iodinated hGH was carried out according to Gertler et al., 1984. Native hGH was fully stable under the conditions applied to Fmoc-hGH (pH 10.5, 37° C., 4 days)”.
